# Data reported in PubChem BioAssay AID463206 (Broad Institute, 2010).
# Active and inactive are the calls of the source.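 The calls were made as follows: active = caspase luminescence falls with dose and the half-maximal concentration AC50 from the fitted curve is at or below a set limit; inconclusive = flat fit at 30 to 70% signal loss, or invalid fit; inactive = AC50 above the limit, or signal rises instead.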
# System: INS-1E cytokine-induced caspase-3/7, Caspase-Glo luminescence, 48 h
# Assay: inhibitors of cytokine-induced caspase-3/7 activity, dose response, orthogonal assay for beta-cell apoptosis protection project, INS-1E rat cells, luminescence (AID 463206)
row,Structure (SMILES),AC50
1,CCC[C@@H](CN1CCC[C@H]1CN1C(N)=NC[C@@H]1Cc1ccccc1)N1C[C@@H]([C@H](C)CC)N(CCCC2CCCC2)C1=N,> 26 µM (inactive)
2,Cc1ccc(NC(=O)c2nc(S(=O)(=O)Cc3ccccc3)ncc2Cl)cc1,> 26 µM (inactive)
3,Cc1cccc2c(C(=O)N3CCN(c4ccccn4)CC3)cc(-c3cccc(Br)c3)nc12,> 26 µM (inactive)
4,O=C1C=C(Nc2ccccc2O)c2ccccc2C1=O,> 26 µM (inactive)
5,COc1ccc(C)cc1NS(=O)(=O)c1ccc(NC(=O)CN(c2cc([N+](=O)[O-])ccc2C)S(C)(=O)=O)cc1,> 26 µM (inactive)
6,Fc1ccc(C[n+]2c(-c3ccccc3)cc(-c3ccccc3)cc2-c2ccccc2)cc1,> 26 µM (inactive)
7,C=CCn1nc([N+](=O)[O-])nc1Sc1cccc2cccnc12,> 26 µM (inactive)
8,CC(C)Oc1ccc(S(=O)(=O)N2CCCCC2)cc1NC(=O)CN1CCCC1c1cccs1 (stereo not drawn),> 26 µM (inactive)
9,CCCCCCCCCn1ccc(=N)cc1,> 26 µM (inactive)
10,COc1ccc(C(=O)N/N=C/c2sc3ccccc3c2O)cc1,> 26 µM (inactive)
11,COc1cc2cc(C(=O)N3CCOCC3)cc(-c3ccc(C)cc3)c2cc1OC,> 26 µM (inactive)
12,COc1ccc(Br)cc1CN1CCN(Cc2c[nH]c3ccccc23)CC1,> 26 µM (inactive)
13,COc1ccc(/C(C)=N/NC(=O)c2cccc(S(=O)(=O)N3CCCC3)c2)c(O)c1,> 26 µM (inactive)
14,COc1ccc(Nc2ccc3c(c2)=NC2(CCCCC2)[N+]=3[O-])cc1,> 26 µM (inactive)
15,O=[N+]([O-])c1c(Nc2ccccn2)cc(Cl)c2nonc12,> 26 µM (inactive)
16,O=C(NCc1ccccc1)C1=C[C@H](c2csc3ccccc23)C[C@H](OCCCCO)O1,> 26 µM (inactive)
17,COc1ccc(N=Nc2ccc(O)c3ncccc23)cc1,> 12 µM (inactive)
18,CCN(CC)S(=O)(=O)c1ccc(Oc2ccc(S(=O)(=O)N(CC)CC)cc2)cc1,> 26 µM (inactive)
19,O=S(=O)(c1ccc(Cl)cc1)N1CCN(Cc2ccc(O)c3ncccc23)CC1,> 26 µM (inactive)
20,O=C1C=C(Nc2ccccc2)C(=O)c2ccccc21,> 26 µM (inactive)
21,Cc1ccc(NC2=CC(=O)C(=O)c3ccccc32)c(C)c1,> 26 µM (inactive)
22,CCCCn1c(NS(=O)(=O)c2ccccc2)c(S(=O)(=O)c2ccc(C)cc2)c2nc3ccccc3nc21,> 12 µM (inactive)
23,Cc1ccc(S(=O)(=O)Nc2ccc(O)c3ccccc23)c(C)c1,> 26 µM (inactive)

row,Structure (SMILES),AC50
1,CCN(c1ccccc1)S(=O)(=O)c1ccc(C(=O)NC2CCN(Cc3ccccc3)CC2)cc1,> 26 µM (inactive)
2,COc1cc(NC2CCCCC2O)c2nc(-c3ccc(Cl)cc3)ccc2c1 (stereo not drawn),> 26 µM (inactive)
3,CC1CC(=O)c2c(cc3c(-c4c(O)cc(O)c5c(O)c6c(cc45)OC(C)CC6=O)c(O)cc(O)c3c2O)O1 (stereo not drawn),> 26 µM (inactive)
4,N#C/C(=C\c1ccc([N+](=O)[O-])o1)c1nc2ccccc2[nH]1,> 26 µM (inactive)
5,COc1ccccc1N1CCN(c2ncc(C(=O)N3CCN(c4cccc(Cl)c4)CC3)c3ccccc23)CC1,> 26 µM (inactive)
6,CN(CC1CCCO1)S(=O)(=O)c1ccc(C(=O)Nc2nc(-c3ccccn3)cs2)cc1 (stereo not drawn),> 26 µM (inactive)
7,CCc1nnc(NC(=O)c2cccc(C(=O)Nc3nnc(CC)s3)n2)s1,> 26 µM (inactive)
8,CCCCCCC(=O)N1C/C=C\C(c2ccc(OC)cc2)N(Cc2ccc(F)cc2)C(=O)[C@H]1Cc1ccccc1 (stereo partly drawn),> 26 µM (inactive)
9,COCCNC(=O)CSC1=N/C(=C/c2ccc(Cl)c(Cl)c2)C(=O)N1c1ccccc1F,> 26 µM (inactive)
10,COc1cccc(COc2cc3ccccc3nc2C)c1,> 26 µM (inactive)
11,C[C@H]1CCC/C=C/C2C[C@H](O)CC2[C@H](O)/C=C/C(=O)O1 (stereo partly drawn),> 26 µM (inactive)
12,Cc1ccccc1OCc1n(CC(=O)OC2CC(C)CCC2C(C)C)c2ccccc2[n+]1C (stereo not drawn),> 26 µM (inactive)
13,C/C(=N\NC(=O)c1ccccc1NC(=O)c1ccc(Cl)cc1)c1ccncc1,> 26 µM (inactive)
14,COc1ccc(OC)c(NC(=O)c2nc(S(=O)(=O)Cc3ccccc3)ncc2Cl)c1,> 26 µM (inactive)
15,Cc1ccc2c(c1)S/C(=C/c1ccc[n+](CCO)c1)N2C,> 26 µM (inactive)
16,C=CCn1c(SCN2C(=O)c3ccccc3C2=O)nc2ccc(Cl)cc2c1=O,> 26 µM (inactive)
17,Cc1ncc(CO)c(/C=N/NC(=O)c2cc3c(s2)CCCC3)c1O,> 26 µM (inactive)
18,O=C(N/N=C(\Cc1ncc[nH]1)c1ccccc1)c1ccncc1,> 26 µM (inactive)
19,CN1/C(=C\C(=S)Nc2ccccc2)C(C)(C)c2ccccc21,> 26 µM (inactive)
20,C=C(C(=O)c1ccccc1)C(C(=C)C(=O)c1ccccc1)c1ccc(OC)cc1,> 26 µM (inactive)
21,Cc1cccc(NC(=O)c2nc(S(=O)(=O)Cc3ccccc3)ncc2Cl)c1,> 26 µM (inactive)
22,COc1ccc(-n2c(-c3ccc(Cl)cc3)c[n+]3c2CCc2ccccc2-3)cc1,> 26 µM (inactive)
23,CCCCCCC[n+]1ccc(-c2cc[n+](CCCCCCC)cc2)cc1,> 26 µM (inactive)

row,Structure (SMILES),AC50
1,CCCOc1nc2c(c(=O)n(C)c(=O)n2C)n1Cc1cccc2ccccc12,> 26 µM (inactive)
2,COc1ccc(CN2CCN(CCSc3ccc(C)cc3)CC2)c(OC)c1OC,> 26 µM (inactive)
3,Cc1nc(Nc2ccc(Cl)c(Cl)c2)sc1C(=O)Nc1ccccc1,> 26 µM (inactive)
4,CC(C)(C)c1ccc(NNC(=O)C2CCC2)cc1,> 26 µM (inactive)
5,Cc1ccc(S(=O)(=O)c2ccc([N+](=O)[O-])cn2)cc1,> 26 µM (inactive)
6,CC(=O)c1c(C)oc2ccc(N(C(C)=O)S(=O)(=O)c3cccc4cccnc34)cc12,> 26 µM (inactive)
7,Cc1ccc(Nc2c3c(nc4ccccc24)CCC3)cc1,> 26 µM (inactive)
8,COc1ccc(C)cc1Nc1n[n+](-c2ccccc2)c(-c2ccc(N(C)C)cc2)s1,> 26 µM (inactive)
9,O=C(OCn1ncc(Br)c(Br)c1=O)c1ccc(F)cc1,> 26 µM (inactive)
10,CC1CN(S(=O)(=O)c2ccc(C(=O)NCCCn3ccnc3)cc2)CC(C)O1 (stereo not drawn),> 26 µM (inactive)
11,CC(NC(=S)NC1CCCCC1)c1ccc(C(C)(C)C)cc1 (stereo not drawn),> 26 µM (inactive)
12,CCCOCc1ccc(O)c2ncccc12,> 26 µM (inactive)
13,Cc1cccc(-n2c(C)cc(/C=N/n3cnnc3)c2C)c1,> 26 µM (inactive)
14,O=C(Nc1ccc(OCC(=O)N2CCC(Cc3ccccc3)CC2)cc1)c1ccco1,> 26 µM (inactive)
15,c1ccc(C(c2ccccc2)N2CCN(c3nc4ccccc4n4cnnc34)CC2)cc1,> 26 µM (inactive)
16,COc1ccc(NS(=O)(=O)c2ccc(N3CCOCC3)c(N)c2)cc1,> 26 µM (inactive)
17,CNC(=O)c1sc(N2N=C3/C(=C/c4ccccc4)CCCC3C2c2ccccc2)nc1C (stereo not drawn),> 26 µM (inactive)
18,c1ccc(CNc2nc(NCc3ccccc3)c3ccccc3n2)cc1,> 26 µM (inactive)
19,Clc1cc2cccnc2c2ncccc12,> 26 µM (inactive)
20,COc1ccc2c(c1)C(=O)[C@@H](O)[C@H](c1ccc(OC)c(Br)c1)O2,> 26 µM (inactive)
21,Cc1oc(/N=C/c2ccccc2)c(C#N)c1C,> 26 µM (inactive)
22,Cc1ccc2nc(/C(C#N)=C\c3ccc([N+](=O)[O-])o3)[nH]c2c1,> 26 µM (inactive)
